Data published in patent US7250158B1, “Skin lightening agents, compositions and methods” (Conopco, Inc., priority 2006, dated 2007).

Test system: Melanoderm cultures
Experiment: Solvable melanin assay on Melanoderm cultures (3-D skin model)
Type: cell-based
Conditions: for OD = 490 nm (melanin content): Melanoderm cultures fed every other day for 2 weeks, Untreated control 1.259, ETOH control 1.035
Procedure: This experiment was carried out using a Melanoderm cultures. […] was measured using a chromameter to assay the degree of melanization of a 3-D skin model. Melanoderm cultures were obtained from MatTek Corporation, Ashland, Mass. The Melanoderm was maintained according to the manufacturer's instructions. The basal media used for the maintenance of the Melanoderm cultures was DMEM supplemented with unspecified quantities of Epidermal growth factor, Insulin, Hydrocortisone, and proprietary epidermal differentiation compounds, in addition to anti-fungal and antibiotics. For the long term maintenance of the Melanoderms, the basal media was supplemented with both bFGF and a-MSH, compounds which are stimulators of melanocyte growth and melanogenesis. The cultures were fed every other day for a total of 2 weeks—fresh active preparations, prepared in DMSO or culture media, were also applied to the Melanoderms when feeding was performed. Each treatment condition was done in duplicate and digital photographs were taken of the Melanoderm cultures to assess overall pigmentation. As well, microscopic images of the Melanoderms were done to assess the cell viability of the keratinocytes and melanocytes. For further evidence that the treatments were/not cytotoxic, an LDH assay (Promega, Madison, Wis.) was performed on the supernatants from 24 hour post-treatment cultures. After treatment, tissues are usually frozen until completion of the experiment. Thaw tissues, a few at a time and place in D-PBS to remove excess phenol red from the culture medium and residual test article. Remove a single tissue from the insert. Blot dry and place in 1.7 ml. microfuge tube. Repeat for all samples. Add 250 ul Solvable™ (Tissue and Gel Solubilizer 0.5 M—Packard BioScience Co. Catalogue No. 6NE9100 (NEF910)). Close the tube and make sure that the tissue is completely submerged. Incubate at 60° C. overnight along with standards. In the morning, vortex the samples. Sometimes thick tissues will require additional time to complete the solution process. To Prepare Standard: Dissolve Melanin (Sigma cat. M 8631) in Solvable at 1 mg/ml. The solution may be warmed gently for 15 minutes at 37° C. Store solution in dark. To Prepare Standard Curve: Prepare dilutions from the standard containing 0 ug to 250 ug of melanin in a total of 250 ul Solvable. Incubate dilutions along with samples. To Read Assay: Cool samples and standards. Centrifuge at 13,000 rpm for 5 minutes to pellet. Fill microwell plate (C-96) with 200 ul each of samples and standards. There is some foaming of samples when pipetted. Blow gently across the samples to break bubbles prior to reading the plate. Read plate at […].

With O=C(O)C(=O)Cc1ccc(O)cc1 [4-hydroxyphenylpyruvate] the “OD = 490 nm (melanin content)” value (5 uM) was 1.236, the “OD = 490 nm (melanin content)” value (50 uM) was 0.687 and the “OD = 490 nm (melanin content)” value (500 uM) was 0.565. The “OD = 490 nm (melanin content)” value (1000 uM) was 0.453 and the “effect on melanin synthesis” value (conclusion from Table 5, Melanoderm cultures) was “reduce melanin synthesis”.
